Measurements taken from patent publication US10168342B2, “Lipid probes and uses thereof” (THE SCRIPPS RESEARCH INSTITUTE, priority 2015, dated 2019).
Read-outs that look alike come from different tables or passages of the source.

Assays:
[1] = biological target: AEA-DA lipid probe targets in Neuro2a cells (Mus musculus, UniProt O35129)
[2] = biological target: AEA-DA lipid probe targets in Neuro2a cells (Mus musculus, UniProt Q60716)
[3] = biological target: T1, AEA-DA lipid probe targets in Neuro2a cells (Mus musculus, UniProt Q7TMK9)
T1 sequence (Q7TMK9 1-623): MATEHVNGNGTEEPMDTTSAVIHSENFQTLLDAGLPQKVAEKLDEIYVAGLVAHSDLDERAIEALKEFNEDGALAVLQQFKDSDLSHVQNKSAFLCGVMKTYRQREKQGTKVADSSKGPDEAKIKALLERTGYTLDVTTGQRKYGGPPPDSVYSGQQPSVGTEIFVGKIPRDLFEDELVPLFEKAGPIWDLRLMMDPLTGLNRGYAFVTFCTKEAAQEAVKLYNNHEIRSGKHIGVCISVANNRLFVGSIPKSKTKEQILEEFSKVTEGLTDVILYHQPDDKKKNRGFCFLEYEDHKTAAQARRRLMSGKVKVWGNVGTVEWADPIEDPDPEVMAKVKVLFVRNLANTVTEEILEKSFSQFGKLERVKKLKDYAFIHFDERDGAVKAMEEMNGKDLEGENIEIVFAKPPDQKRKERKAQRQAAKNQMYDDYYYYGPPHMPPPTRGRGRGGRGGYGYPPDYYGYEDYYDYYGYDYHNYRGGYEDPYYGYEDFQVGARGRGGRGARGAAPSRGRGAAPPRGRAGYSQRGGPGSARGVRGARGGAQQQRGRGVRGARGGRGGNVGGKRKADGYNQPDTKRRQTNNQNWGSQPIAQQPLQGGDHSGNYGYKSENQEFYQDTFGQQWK

[4] = biological target: T2, AEA-DA lipid probe targets in Neuro2a cells (Mus musculus, UniProt Q8BJ71)
T2 sequence (Q8BJ71 1-819): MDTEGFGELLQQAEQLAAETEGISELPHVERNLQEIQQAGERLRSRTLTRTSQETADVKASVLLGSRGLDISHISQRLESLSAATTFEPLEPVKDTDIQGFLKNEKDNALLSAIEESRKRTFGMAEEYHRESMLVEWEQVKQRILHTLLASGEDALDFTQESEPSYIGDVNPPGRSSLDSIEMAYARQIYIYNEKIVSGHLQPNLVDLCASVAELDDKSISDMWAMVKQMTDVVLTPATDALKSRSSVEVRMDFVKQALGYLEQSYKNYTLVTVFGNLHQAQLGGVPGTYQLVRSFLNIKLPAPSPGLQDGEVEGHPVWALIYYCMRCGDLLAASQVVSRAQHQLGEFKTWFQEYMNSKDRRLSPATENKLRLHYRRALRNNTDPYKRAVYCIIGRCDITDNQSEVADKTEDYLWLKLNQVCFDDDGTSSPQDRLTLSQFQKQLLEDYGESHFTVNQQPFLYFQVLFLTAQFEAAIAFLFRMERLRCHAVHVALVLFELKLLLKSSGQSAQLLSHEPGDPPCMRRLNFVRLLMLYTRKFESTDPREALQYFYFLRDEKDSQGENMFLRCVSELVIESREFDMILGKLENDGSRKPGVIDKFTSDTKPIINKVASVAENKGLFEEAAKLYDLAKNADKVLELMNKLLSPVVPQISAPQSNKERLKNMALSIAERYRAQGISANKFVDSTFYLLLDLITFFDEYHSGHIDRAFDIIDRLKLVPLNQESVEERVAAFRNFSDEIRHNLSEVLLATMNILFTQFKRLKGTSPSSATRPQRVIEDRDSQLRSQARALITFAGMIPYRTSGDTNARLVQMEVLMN

[5] = biological target: T3, AEA-DA lipid probe targets in Neuro2a cells (Mus musculus, UniProt Q8R2Y8)
T3 sequence (Q8R2Y8 1-181): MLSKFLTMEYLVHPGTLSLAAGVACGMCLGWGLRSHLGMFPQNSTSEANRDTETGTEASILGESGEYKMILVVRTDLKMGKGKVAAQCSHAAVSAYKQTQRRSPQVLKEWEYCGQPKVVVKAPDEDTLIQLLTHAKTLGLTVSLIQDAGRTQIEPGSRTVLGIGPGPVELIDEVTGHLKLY

[6] = biological target: AEA-DA lipid probe targets in Neuro2a cells (Mus musculus, UniProt Q8VDD5)
AEA-DA lipid probe targets in Neuro2a cells (Mus musculus, UniProt Q8VDD5), sequence (Q8VDD5 whole entry): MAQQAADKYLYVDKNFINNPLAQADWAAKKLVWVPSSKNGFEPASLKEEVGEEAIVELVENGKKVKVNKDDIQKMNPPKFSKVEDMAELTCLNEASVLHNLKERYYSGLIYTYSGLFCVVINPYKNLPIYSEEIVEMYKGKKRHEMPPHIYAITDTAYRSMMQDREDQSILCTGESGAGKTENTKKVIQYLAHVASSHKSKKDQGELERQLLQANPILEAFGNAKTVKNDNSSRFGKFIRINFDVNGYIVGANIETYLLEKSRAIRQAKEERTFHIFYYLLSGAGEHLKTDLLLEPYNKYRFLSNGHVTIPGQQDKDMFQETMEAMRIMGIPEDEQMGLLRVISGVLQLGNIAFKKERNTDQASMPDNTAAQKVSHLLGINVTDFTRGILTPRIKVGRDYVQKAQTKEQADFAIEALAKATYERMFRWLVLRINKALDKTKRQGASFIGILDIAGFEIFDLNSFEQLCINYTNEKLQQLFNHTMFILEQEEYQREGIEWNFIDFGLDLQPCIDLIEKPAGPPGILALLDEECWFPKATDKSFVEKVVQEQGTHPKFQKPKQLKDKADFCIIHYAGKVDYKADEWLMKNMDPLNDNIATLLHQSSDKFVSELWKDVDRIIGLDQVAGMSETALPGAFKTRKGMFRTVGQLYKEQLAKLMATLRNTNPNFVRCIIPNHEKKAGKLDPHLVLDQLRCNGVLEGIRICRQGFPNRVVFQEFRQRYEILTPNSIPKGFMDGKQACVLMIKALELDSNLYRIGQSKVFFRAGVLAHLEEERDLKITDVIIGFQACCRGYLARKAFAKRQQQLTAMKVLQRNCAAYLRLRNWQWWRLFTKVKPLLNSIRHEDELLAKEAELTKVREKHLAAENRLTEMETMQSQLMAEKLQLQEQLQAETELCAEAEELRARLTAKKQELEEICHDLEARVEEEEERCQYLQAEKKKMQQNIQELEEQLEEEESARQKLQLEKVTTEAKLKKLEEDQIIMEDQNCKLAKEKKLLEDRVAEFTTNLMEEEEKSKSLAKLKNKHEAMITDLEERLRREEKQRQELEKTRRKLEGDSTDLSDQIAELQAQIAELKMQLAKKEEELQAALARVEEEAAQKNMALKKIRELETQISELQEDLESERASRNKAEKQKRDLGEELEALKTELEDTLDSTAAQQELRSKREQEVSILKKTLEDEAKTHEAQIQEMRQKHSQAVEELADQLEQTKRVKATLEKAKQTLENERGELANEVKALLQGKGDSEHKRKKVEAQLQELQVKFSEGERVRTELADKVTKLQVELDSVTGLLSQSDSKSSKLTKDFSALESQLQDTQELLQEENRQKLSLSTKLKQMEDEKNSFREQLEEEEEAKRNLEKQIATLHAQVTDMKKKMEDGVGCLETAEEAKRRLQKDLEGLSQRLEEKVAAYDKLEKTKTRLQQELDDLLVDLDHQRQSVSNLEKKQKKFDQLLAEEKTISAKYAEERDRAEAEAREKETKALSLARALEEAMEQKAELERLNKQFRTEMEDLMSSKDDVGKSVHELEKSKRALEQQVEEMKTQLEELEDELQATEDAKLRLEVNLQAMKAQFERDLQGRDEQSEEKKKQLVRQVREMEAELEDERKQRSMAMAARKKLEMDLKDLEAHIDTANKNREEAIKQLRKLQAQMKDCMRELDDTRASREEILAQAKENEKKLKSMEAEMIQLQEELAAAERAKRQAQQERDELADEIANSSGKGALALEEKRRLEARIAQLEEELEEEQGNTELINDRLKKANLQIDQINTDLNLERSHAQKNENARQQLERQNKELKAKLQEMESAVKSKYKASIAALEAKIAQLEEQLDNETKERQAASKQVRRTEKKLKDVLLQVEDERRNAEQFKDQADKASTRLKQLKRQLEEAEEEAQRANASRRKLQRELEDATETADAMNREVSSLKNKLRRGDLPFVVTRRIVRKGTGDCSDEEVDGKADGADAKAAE

[7] = biological target: T4, AEA-DA lipid probe targets in Neuro2a cells (Mus musculus, UniProt Q9WV54)
T4 sequence (Q9WV54 19-394): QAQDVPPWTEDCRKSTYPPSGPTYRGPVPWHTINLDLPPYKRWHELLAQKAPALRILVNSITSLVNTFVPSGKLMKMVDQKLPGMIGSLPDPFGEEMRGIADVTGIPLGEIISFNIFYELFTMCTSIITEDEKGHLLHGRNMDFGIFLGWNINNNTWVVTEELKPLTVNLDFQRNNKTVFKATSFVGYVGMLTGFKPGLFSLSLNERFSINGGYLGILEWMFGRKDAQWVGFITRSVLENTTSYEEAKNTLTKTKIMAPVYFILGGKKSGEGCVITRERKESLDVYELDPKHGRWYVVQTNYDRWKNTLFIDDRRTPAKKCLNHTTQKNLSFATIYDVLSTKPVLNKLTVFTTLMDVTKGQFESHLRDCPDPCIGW

AEA-DA lipid probe targets in Neuro2a cells (Mus musculus, UniProt O35129), sequence (O35129 whole entry): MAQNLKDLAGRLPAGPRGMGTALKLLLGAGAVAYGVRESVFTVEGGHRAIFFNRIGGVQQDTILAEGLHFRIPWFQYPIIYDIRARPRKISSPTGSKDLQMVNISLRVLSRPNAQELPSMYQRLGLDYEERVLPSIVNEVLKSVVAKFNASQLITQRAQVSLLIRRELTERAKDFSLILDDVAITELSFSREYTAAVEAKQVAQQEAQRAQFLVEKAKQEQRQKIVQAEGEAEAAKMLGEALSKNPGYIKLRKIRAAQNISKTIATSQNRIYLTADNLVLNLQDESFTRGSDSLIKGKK
AEA-DA lipid probe targets in Neuro2a cells (Mus musculus, UniProt Q60716), sequence (Q60716 24-537): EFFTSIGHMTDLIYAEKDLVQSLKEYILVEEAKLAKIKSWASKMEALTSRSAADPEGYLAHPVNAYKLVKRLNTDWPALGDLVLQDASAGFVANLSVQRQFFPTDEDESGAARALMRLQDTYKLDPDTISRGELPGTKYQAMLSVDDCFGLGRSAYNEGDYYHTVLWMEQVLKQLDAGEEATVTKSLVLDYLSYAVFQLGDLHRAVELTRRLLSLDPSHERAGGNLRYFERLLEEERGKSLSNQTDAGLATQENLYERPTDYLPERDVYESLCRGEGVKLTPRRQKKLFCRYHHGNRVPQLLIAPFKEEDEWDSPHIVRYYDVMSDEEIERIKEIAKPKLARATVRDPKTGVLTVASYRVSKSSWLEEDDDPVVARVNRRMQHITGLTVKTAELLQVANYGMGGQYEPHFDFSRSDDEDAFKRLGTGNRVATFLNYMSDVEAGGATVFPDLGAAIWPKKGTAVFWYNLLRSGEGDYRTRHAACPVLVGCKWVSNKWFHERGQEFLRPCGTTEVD

In the case of CCCCC/C=C\C/C=C\C/C=C\C/C=C\CCCC(=O)NCCO [AEA, anandamide, reference compound], the “SILAC ratio Phb2” value ([1]; competitor 200 μM) is reported as 1.2, the “SILAC ratio P4ha2” value ([2]; competitor 200 μM) is reported as 1.0 and the “SILAC ratio Syncrip” value ([3]; competitor 200 μM) is reported as 1.2. For the same compound, the “SILAC ratio Nup93” value ([4]; competitor 200 μM) was 1.2, the “SILAC ratio Ptrh2” value ([5]; competitor 200 μM) was 1.5 and the “SILAC ratio Myh9” value ([6]; competitor 200 μM) was 1.1. The “SILAC ratio Asah1” value ([7]; competitor 200 μM) was 0.8.

O=C(/C=C/c1cccnc1)NCCCCC1CCN(C(=O)c2ccccc2)CC1 [FK-866, reference compound] was tested, and the “SILAC ratio Phb2” value ([1]; competitor 25 μM) was 1.1, the “SILAC ratio P4ha2” value ([2]; competitor 25 μM) was 1.1 and the “SILAC ratio Syncrip” value ([3]; competitor 25 μM) was 1.1. For the same compound, the “SILAC ratio Nup93” value ([4]; competitor 25 μM) was 1.2, the “SILAC ratio Ptrh2” value ([5]; competitor 25 μM) was 1.0 and the “SILAC ratio Myh9” value ([6]; competitor 25 μM) was 1.2. For the same compound, the “SILAC ratio Asah1” value ([7]; competitor 25 μM) was 1.3.

CN1CCN(C(=O)c2c(-c3ccccc3)c3cc([N+](=O)[O-])ccc3n2C)CC1 [KML110, (1-Methyl-5-nitro-3-phenyl-1H-indol-2-yl)(4-methylpiperazin-1-yl)methanone] was tested, and the “SILAC ratio Phb2” value ([1]; competitor 25 μM) was 1.3, the “SILAC ratio P4ha2” value ([2]; competitor 25 μM) was 1.3 and the “SILAC ratio Syncrip” value ([3]; competitor 25 μM) was 1.4. The “SILAC ratio Nup93” value ([4]; competitor 25 μM) was 1.4, the “SILAC ratio Ptrh2” value ([5]; competitor 25 μM) was 1.0 and the “SILAC ratio Myh9” value ([6]; competitor 25 μM) was 1.7. For the same compound, the “SILAC ratio Asah1” value ([7]; competitor 25 μM) was 1.2.

CN1CCN(C(=O)c2[nH]c3ccc([N+](=O)[O-])cc3c2-c2ccccc2)CC1 [MJN228, (4-Methylpiperazin-1-yl)(5-nitro-3-phenyl-1H-indol-2-yl)methanone] was tested, and the “SILAC ratio Phb2” value ([1]; competitor 10 μM) was 1.3, the “SILAC ratio Phb2” value ([1]; competitor 25 μM) was 1.2 and the “SILAC ratio Phb2” value ([1]; competitor 50 μM) was 1.4. The “SILAC ratio Phb2” value ([1]; competitor 100 μM) was 1.5, the “SILAC ratio P4ha2” value ([2]; competitor 10 μM) was 1.2 and the “SILAC ratio P4ha2” value ([2]; competitor 25 μM) was 1.3. For the same compound, the “SILAC ratio P4ha2” value ([2]; competitor 50 μM) was 1.0, the “SILAC ratio P4ha2” value ([2]; competitor 100 μM) was 1.0 and the “SILAC ratio Syncrip” value ([3]; competitor 10 μM) was 0.9. The “SILAC ratio Syncrip” value ([3]; competitor 25 μM) was 1.2, the “SILAC ratio Syncrip” value ([3]; competitor 50 μM) was 1.3 and the “SILAC ratio Syncrip” value ([3]; competitor 100 μM) was 1.1. For the same compound, the “SILAC ratio Nup93” value ([4]; competitor 10 μM) was 0.9, the “SILAC ratio Nup93” value ([4]; competitor 25 μM) was 1.1 and the “SILAC ratio Nup93” value ([4]; competitor 50 μM) was 1.0. The “SILAC ratio Nup93” value ([4]; competitor 100 μM) was 1.1, the “SILAC ratio Ptrh2” value ([5]; competitor 10 μM) was 1.1 and the “SILAC ratio Ptrh2” value ([5]; competitor 25 μM) was 1.0. For the same compound, the “SILAC ratio Ptrh2” value ([5]; competitor 50 μM) was 1.2, the “SILAC ratio Ptrh2” value ([5]; competitor 100 μM) was 1.1 and the “SILAC ratio Myh9” value ([6]; competitor 10 μM) was 1.2. For the same compound, the “SILAC ratio Myh9” value ([6]; competitor 25 μM) was 1.3, the “SILAC ratio Myh9” value ([6]; competitor 50 μM) was 1.2 and the “SILAC ratio Myh9” value ([6]; competitor 100 μM) was 1.6. The “SILAC ratio Asah1” value ([7]; competitor 10 μM) was 1.4, the “SILAC ratio Asah1” value ([7]; competitor 25 μM) was 1.6 and the “SILAC ratio Asah1” value ([7]; competitor 50 μM) was 2.2. The “SILAC ratio Asah1” value ([7]; competitor 100 μM) was 2.1.

In the case of C=CCN(C)CCCCCCOc1ccc(C(=O)c2ccc(Br)cc2)c(F)c1 [Ro 48-8071, reference compound], the “SILAC ratio Phb2” value ([1]; competitor 25 μM) is reported as 0.9, the “SILAC ratio P4ha2” value ([2]; competitor 25 μM) is reported as 1.0 and the “SILAC ratio Syncrip” value ([3]; competitor 25 μM) is reported as 0.8. For the same compound, the “SILAC ratio Nup93” value ([4]; competitor 25 μM) was 0.9, the “SILAC ratio Ptrh2” value ([5]; competitor 25 μM) was 0.9 and the “SILAC ratio Myh9” value ([6]; competitor 25 μM) was 1.0. The “SILAC ratio Asah1” value ([7]; competitor 25 μM) was 1.0.
